According to PMC3005334 (Cell, 2010):

Key:
[1] = target: T1, Ypk1 (Saccharomyces cerevisiae, UniProt P12688); assay: In vitro kinase activity assay; assay type: biochemical
T1 sequence (P12688 1-680): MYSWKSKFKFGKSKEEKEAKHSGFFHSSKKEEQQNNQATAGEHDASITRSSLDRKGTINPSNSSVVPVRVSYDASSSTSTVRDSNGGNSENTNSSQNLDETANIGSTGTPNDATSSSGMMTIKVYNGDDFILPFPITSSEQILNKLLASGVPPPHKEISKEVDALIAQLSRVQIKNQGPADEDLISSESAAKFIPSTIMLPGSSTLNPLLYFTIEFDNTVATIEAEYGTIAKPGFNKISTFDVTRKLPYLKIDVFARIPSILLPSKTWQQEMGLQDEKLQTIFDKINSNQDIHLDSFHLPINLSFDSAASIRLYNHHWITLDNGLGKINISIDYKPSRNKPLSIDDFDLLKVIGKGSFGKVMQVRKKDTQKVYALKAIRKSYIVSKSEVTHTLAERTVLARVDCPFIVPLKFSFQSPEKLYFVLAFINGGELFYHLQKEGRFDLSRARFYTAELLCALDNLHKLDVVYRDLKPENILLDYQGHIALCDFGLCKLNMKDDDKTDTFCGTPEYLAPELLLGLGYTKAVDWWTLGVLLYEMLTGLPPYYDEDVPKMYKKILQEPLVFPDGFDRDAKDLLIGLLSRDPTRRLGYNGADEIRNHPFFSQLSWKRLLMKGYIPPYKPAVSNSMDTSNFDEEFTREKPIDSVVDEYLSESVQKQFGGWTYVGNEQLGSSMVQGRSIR

[2] = target: Erg4 (Saccharomyces cerevisiae, UniProt P25340); assay type: binding; conditions: in vivo bound, LC-MS; natural synthesizing enzyme
[3] = test system: 21 ergosterol biosynthetic proteins (Erg proteins); conditions: of 21 Erg enzymes, above the control
[4] = target: T2, Hmg1 (Saccharomyces cerevisiae, UniProt P12683); assay type: binding; conditions: probably low level of protein in the preparation
T2 sequence (P12683 1-1054): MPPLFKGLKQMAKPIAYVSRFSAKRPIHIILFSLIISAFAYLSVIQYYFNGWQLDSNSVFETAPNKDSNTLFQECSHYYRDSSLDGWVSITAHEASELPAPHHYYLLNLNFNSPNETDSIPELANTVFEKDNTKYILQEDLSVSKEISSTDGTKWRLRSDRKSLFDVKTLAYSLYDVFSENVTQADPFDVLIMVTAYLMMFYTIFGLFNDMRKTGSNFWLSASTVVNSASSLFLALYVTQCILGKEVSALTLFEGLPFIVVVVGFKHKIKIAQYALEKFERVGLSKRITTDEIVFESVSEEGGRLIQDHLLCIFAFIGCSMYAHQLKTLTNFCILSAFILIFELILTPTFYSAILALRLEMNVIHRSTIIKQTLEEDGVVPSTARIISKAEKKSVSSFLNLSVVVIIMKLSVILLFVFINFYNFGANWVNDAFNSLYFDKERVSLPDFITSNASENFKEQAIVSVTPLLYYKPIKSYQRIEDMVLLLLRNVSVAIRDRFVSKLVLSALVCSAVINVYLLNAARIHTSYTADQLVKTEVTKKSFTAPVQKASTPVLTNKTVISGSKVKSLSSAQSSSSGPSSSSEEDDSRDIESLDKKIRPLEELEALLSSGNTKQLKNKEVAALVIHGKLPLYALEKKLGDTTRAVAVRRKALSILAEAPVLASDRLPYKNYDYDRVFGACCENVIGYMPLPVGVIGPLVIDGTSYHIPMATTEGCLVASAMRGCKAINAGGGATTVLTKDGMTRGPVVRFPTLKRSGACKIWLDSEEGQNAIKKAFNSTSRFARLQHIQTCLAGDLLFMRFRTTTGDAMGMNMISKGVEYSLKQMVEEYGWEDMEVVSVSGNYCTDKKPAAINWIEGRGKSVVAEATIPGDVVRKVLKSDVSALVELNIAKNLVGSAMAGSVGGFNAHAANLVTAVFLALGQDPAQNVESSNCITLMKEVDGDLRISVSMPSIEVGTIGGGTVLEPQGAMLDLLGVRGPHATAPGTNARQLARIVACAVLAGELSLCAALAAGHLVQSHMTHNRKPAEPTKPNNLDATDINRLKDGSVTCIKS

[5] = test system: 103 protein kinases; assay: Affinity purification LC-MS profiling of the panel of yeast protein kinases; assay type: binding, Saccharomyces cerevisiae; conditions: of 103 kinases analyzed
[6] = test system: Ypk1, Hal5, and Rck2; assay: In vitro small metabolite-protein binding assay; parameters: species or system Saccharomyces cerevisiae; conditions: fixed amount of protein; indicates specific binding
[7] = test system: Atg1, Psk2 and denatured Ypk1; assay: In vitro small metabolite-protein binding assay; parameters: species or system Saccharomyces cerevisiae; conditions: denatured protein or control proteins; indicates non-specific adsorption

Chain of Erg4 (P25340 whole entry): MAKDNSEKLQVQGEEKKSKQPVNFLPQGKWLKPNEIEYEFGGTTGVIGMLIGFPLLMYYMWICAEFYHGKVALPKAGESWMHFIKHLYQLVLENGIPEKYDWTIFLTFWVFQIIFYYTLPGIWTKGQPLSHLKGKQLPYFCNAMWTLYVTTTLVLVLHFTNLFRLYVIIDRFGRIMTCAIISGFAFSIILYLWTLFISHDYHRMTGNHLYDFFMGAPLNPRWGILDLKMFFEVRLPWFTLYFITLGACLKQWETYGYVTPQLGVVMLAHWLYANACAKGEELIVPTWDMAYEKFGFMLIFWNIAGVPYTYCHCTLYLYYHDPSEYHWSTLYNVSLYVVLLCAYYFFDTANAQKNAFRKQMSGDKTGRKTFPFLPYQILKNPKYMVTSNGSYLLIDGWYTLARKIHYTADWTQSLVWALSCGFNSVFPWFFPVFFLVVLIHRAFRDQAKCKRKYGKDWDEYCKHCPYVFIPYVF

**Q.** With `CC(C)[C@@H](C)/C=C/[C@@H](C)[C@H]1CC[C@H]2C3=CC=C4C[C@@H](O)CC[C@]4(C)[C@H]3CC[C@]12C` [ergosterol] as the molecule, how does the “Ypk1 in vitro kinase activity with increasing concentrations of ergosterol” value ([1]; Ypk1 from erg4Δ strain lacking ergosterol) read?
**A.** could not be stimulated

**Q.** And the “Ypk1 in vitro kinase activity with increasing concentrations of ergosterol” value ([1]; Ypk1 from wild type cells grown in the presence of 0.4 mM ergosterol)?
**A.** could be stimulated to a similar extent

**Q.** What about the “binding to Erg4” value [2] of the same molecule?
**A.** bound

**Q.** What about the “number of Erg proteins the metabolite co-purified with” value [3] of the same molecule?
**A.** 5

**Q.** What about the “detection with Hmg1” value [4] of the same molecule?
**A.** not detected

**Q.** And the “number of protein kinases associated with the metabolite” value [5]?
**A.** 15

**Q.** What about the “shape of binding curve over increasing free ergosterol” value [6] of the same molecule?
**A.** saturable curve

**Q.** What about the “shape of binding curve over increasing free ergosterol” value [7] of the same molecule?
**A.** close to linear
